Measurements reported in PubChem BioAssay (NCI).
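Abbreviation: GI50, concentration required for 50% inhibition of growth. TGI denotes the concentration required for complete inhibition of growth.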

Assays:
Test in all cases: NCI anticancer screen, dose series, 384-well format
[1] = tested on: RXF 393 renal
[2] = tested on: SK-OV-3 ovarian
[3] = tested on: HOP-62 NSCLC
[4] = tested on: OVCAR-4 ovarian
[5] = tested on: MOLT-4 leukemia
[6] = tested on: SN12C renal
[7] = tested on: TK-10 renal
[8] = tested on: UACC-62 melanoma
[9] = tested on: SK-MEL-28 melanoma
[10] = tested on: SK-MEL-5 melanoma
[11] = tested on: HS 578T breast
[12] = tested on: RPMI-8226 leukemia
[13] = tested on: UO-31 renal
[14] = tested on: EKVX NSCLC
[15] = tested on: UACC-257 melanoma
[16] = tested on: M14 melanoma
[17] = tested on: HT29 colon
[18] = tested on: OVCAR-3 ovarian
[19] = tested on: U251 glioblastoma
[20] = tested on: NCI/ADR-RES ovarian
[21] = tested on: OVCAR-8 ovarian
[22] = tested on: COLO 205 colon
[23] = tested on: CCRF-CEM leukemia
[24] = tested on: A549 NSCLC
[25] = tested on: MDA-MB-435 melanoma
[26] = tested on: NCI-H23 lung
[27] = tested on: IGROV1 ovarian
[28] = tested on: K-562 leukemia
[29] = tested on: SF-539 CNS
[30] = tested on: MDA-MB-231 breast
[31] = tested on: BT-549 breast
[32] = tested on: ACHN renal
[33] = tested on: SF-268 CNS
[34] = tested on: A498 renal
[35] = tested on: SNB-19 CNS
[36] = tested on: KM12 colon
[37] = tested on: NCI-H460 NSCLC
[38] = tested on: SR leukemia
[39] = tested on: CAKI-1 renal
[40] = tested on: NCI-H226 lung
[41] = tested on: PC-3 prostate
[42] = tested on: 786-0 renal
[43] = tested on: SNB-75 CNS
[44] = tested on: NCI-H322M lung
[45] = tested on: MALME-3M melanoma
[46] = tested on: SF-295 CNS
[47] = tested on: HOP-92 NSCLC
[48] = tested on: HL-60(TB) leukemia
[49] = tested on: NCI-H522 lung
[50] = tested on: T-47D breast
[51] = tested on: DU-145 prostate
[52] = tested on: MCF7 breast
[53] = tested on: HCC-2998 colon
[54] = tested on: MDA-MB-468 breast
[55] = tested on: SW-620 colon
[56] = tested on: HCT-15 colon
[57] = tested on: LOX IMVI melanoma
[58] = tested on: OVCAR-5 ovarian

Which results are given for CN(C)CC(=O)N1CCC(c2ccc(NC(=O)c3ncc(C#N)[nH]3)c(C3=CCCCC3)c2)CC1?
GI50 [1]: 5.03 µM; TGI [1]: 17.2 µM; GI50 [2]: 3.62 µM; TGI [2]: 13.3 µM; GI50 [3]: 4.18 µM; TGI [3]: 14.8 µM; GI50 [4]: 15.5 µM; TGI [4]: 28.9 µM; GI50 [5]: 2.61 µM; TGI [5]: 7.17 µM; GI50 [6]: 1.51 µM; TGI [6]: 13 µM; GI50 [7]: 8.66 µM; TGI [7]: 20.8 µM; GI50 [8]: 1.87 µM; TGI [8]: 3.6 µM; GI50 [9]: 1.8 µM; TGI [9]: 3.28 µM; GI50 [10]: 1.7 µM; TGI [10]: 4.34 µM; GI50 [11]: 2.66 µM; TGI [11]: 6.73 µM; GI50 [12]: 4.07 µM; TGI [12]: 15.3 µM; GI50 [13]: 12.1 µM; TGI [13]: 24.7 µM; GI50 [14]: 12.5 µM; TGI [14]: 25 µM; GI50 [15]: 1.98 µM; TGI [15]: 3.52 µM; GI50 [16]: 1.89 µM; TGI [16]: 3.71 µM; GI50 [17]: 1.71 µM; TGI [17]: 3.26 µM; GI50 [18]: 10.6 µM; TGI [18]: 22.4 µM; GI50 [19]: 5.48 µM; TGI [19]: 17.6 µM; GI50 [20]: 15.7 µM; TGI [20]: 29.1 µM; GI50 [21]: 10.6 µM; TGI [21]: 22.4 µM; GI50 [22]: 3.56 µM; TGI [22]: 11.7 µM; GI50 [23]: 3.27 µM; TGI [23]: 10.7 µM; GI50 [24]: 4.25 µM; TGI [24]: 14.8 µM; GI50 [25]: 3 µM; TGI [25]: 9.64 µM; GI50 [26]: 2.93 µM; TGI [26]: 10.7 µM; GI50 [27]: 10.3 µM; TGI [27]: 22 µM; GI50 [28]: 2.97 µM; TGI [28]: 11.3 µM; GI50 [29]: 3.02 µM; TGI [29]: 13 µM; GI50 [30]: 6.96 µM; TGI [30]: 19.2 µM; GI50 [31]: 2.4 µM; TGI [31]: 9.81 µM; GI50 [32]: 7.59 µM; TGI [32]: 20 µM; GI50 [33]: 6.84 µM; TGI [33]: 19.4 µM; GI50 [34]: 2.04 µM; TGI [34]: 3.91 µM; GI50 [35]: 9.85 µM; TGI [35]: 21.5 µM; GI50 [36]: 0.141 µM; TGI [36]: 3.52 µM; GI50 [37]: 5.42 µM; TGI [37]: 16.8 µM; GI50 [38]: 2.44 µM; TGI [38]: 5.54 µM; GI50 [39]: 4.11 µM; TGI [39]: 14.9 µM; GI50 [40]: 3.85 µM; TGI [40]: 14.2 µM; GI50 [41]: 5.35 µM; TGI [41]: 17.3 µM; GI50 [42]: 1.93 µM; TGI [42]: 4.41 µM; GI50 [43]: 4.4 µM; TGI [43]: 15.6 µM; GI50 [44]: 7.63 µM; TGI [44]: 20.1 µM; GI50 [45]: 1.66 µM; TGI [45]: 3.57 µM; GI50 [46]: 3.47 µM; TGI [46]: 11.3 µM; GI50 [47]: 1.43 µM; TGI [47]: 10.8 µM; GI50 [48]: 2.06 µM; TGI [48]: 4.49 µM; GI50 [49]: 10.6 µM; TGI [49]: 22.4 µM; GI50 [50]: 12.1 µM; TGI [50]: 24.5 µM; GI50 [51]: 10.4 µM; TGI [51]: 22.2 µM; GI50 [52]: 2.72 µM; TGI [52]: 10.7 µM; GI50 [53]: 2.48 µM; TGI [53]: 5.33 µM; GI50 [54]: 4.3 µM; TGI [54]: 9.35 µM; GI50 [55]: 10.4 µM; TGI [55]: 22.2 µM; GI50 [56]: 1.82 µM; TGI [56]: 3.58 µM; GI50 [57]: 3.32 µM; TGI [57]: 10.6 µM; GI50 [58]: 4.13 µM; TGI [58]: 13.8 µM
